Measurements taken from patent US20230146233A1, “A CLASS OF POLYCYCLIC COMPOUNDS INHIBITING RNA HELICASE DHX33 AND THE APPLICATION THEREOF” (Shenzhen KeYe Life Technologies, Co., Ltd, priority 2020, published 2023).

system: U251-MG cells; assay: Half-maximal cell-inhibitory concentration on U251-MG cells (CCK-8); assay type: cell-based; details: Homo sapiens, U-251, U251-MG cells (DHX33-overexpressing cancer cell strain), 48 hours, read-out: IC50 (half-maximal inhibitory concentrations of compounds on U251-MG cells)
Experimental: U251-MG cells were purchased from the cell bank of the Chinese Academy of Sciences. Cells were cultured in MEM medium containing 10% fetal bovine serum (FBS), 2 mM L-glutammie, streptomycmn and penicillin. The growth conditions were set as follows: a humidified cell incubator (37° C., 5% CO2). Cells were passaged every 3 days and were discarded after 10 passages.
U251-MG cells (a […]-overexpressing cancer cell strain) were seeded on a 96-well plate at 1×10^4 cells/100 μl/well. After the cells were completely attached, the compounds were added to the cell culture medium at a concentration of 5 nM, 10 nM, 25 nM, 50 nM, 100 nM, […], 500 nM, 1000 nM, 2000 nM, […] or 20 μM, and the resulting mixture was uniformly mixed with a multichannel pipette. After the cells were incubated with the compound for 48 hours, CCK-8 reagent (Yeasen Biotechnology (Shanghai) Co., Ltd.) was added to the medium in the 96-well plate in accordance with the standard procedure. After being incubated for 2 hours, the plate was read with a microplate reader (OD=450 nm). The experiment was repeated three times, the inhibition curve of the compound at different concentrations was plotted, and the half-maximal inhibitory concentration (IC50) of the compound was calculated.

SMILES | IC50
COc1cc2nc(/C(C#N)=C/c3cc(C)n(-c4ccncc4F)c3C)[nH]c2cn1 [AB24300, (E)-3-(1-(3-fluoropyridin-4-yl)-2,5-dimethyl-1H-pyrrol-3-yl)-2-(6-methoxy-3H-imidazo[4,5-c]pyridin-2-yl)acrylonitrile] | 1000 to 5000 nM
COc1cc2nc(/C(C#N)=C/c3cc(C)n(-c4sc(C)nc4C#N)c3C)[nH]c2cn1 [AB24348, (E)-5-(3-(2-cyano-2-(6-methoxy-3H-imidazo[4,5-c]pyridin-2-yl)vinyl)-2,5-dimethyl-1H-pyrrol-1-yl)-2-methylthiazole-4-carbonitrile] | < 100 nM
Cc1cc(C#N)c(-n2c(C)cc(/C=C(\C#N)c3nc4cc(N(C)C)ncc4[nH]3)c2C)s1 [AB24355, (E)-2-(3-(2-cyano-2-(6-(dimethylamino)-3H-imidazo[4,5-c]pyridin-2-yl)vinyl)-2,5-dimethyl-1H-pyrrol-1-yl)-5-methylthiophene-3-carbonitrile] | < 100 nM
COc1cc2nc(/C(C#N)=C/c3cc(C)n(-c4sc(Br)cc4C#N)c3C)[nH]c2cn1 [AB24323, (E)-5-bromo-2-(3-(2-cyano-2-(6-methoxy-3H-imidazo[4,5-c]pyridin-2-yl)vinyl)-2,5-dimethyl-1H-pyrrol-1-yl)thiophene-3-carbonitrile] | < 100 nM
COc1cc2nc(/C(C#N)=C/c3cc(C)n(-c4sc(C(C)(C)C)cc4C#N)c3C)[nH]c2cn1 [AB24326] | 100 to 1000 nM
Cc1cc(/C=C(\C#N)c2nc3ccccc3[nH]2)c(C)n1-c1cccs1 [AB24233] | 5000 to 20000 nM
COc1cc2nc(/C(C#N)=C/c3cc(C)n(-c4sc(-c5cccnc5)cc4C#N)c3C)[nH]c2cn1 [AB24337] | 1000 to 5000 nM
COc1cc2nc(/C(C#N)=C/c3cc(C)n(-c4sc(C(C)C)cc4C#N)c3C)[nH]c2cn1 [AB24325, (E)-2-(3-(2-cyano-2-(6-methoxy-3H-imidazo[4,5-c]pyridin-2-yl)vinyl)-2,5-dimethyl-1H-pyrrol-1-yl)-5-isopropylthiophene-3-carbonitrile] | 100 to 1000 nM
Cc1nn(-c2ccccc2OC(F)(F)F)c(C)c1/C=C(\C#N)c1nc2ccccc2[nH]1 [AB24290, (E)-2-(1H-benzo[d]imidazol-2-yl)-3-(3,5-dimethyl-1-(2-(trifluoromethoxy)phenyl)-1H-pyrazol-4-yl)acrylonitrile] | 5000 to 20000 nM
COc1cc2nc(/C(C#N)=C/c3cc(C)n(-c4sc(Cc5ccccc5)cc4C#N)c3C)[nH]c2cn1 [AB24328, (E)-5-benzyl-2-(3-(2-cyano-2-(6-methoxy-3H-imidazo[4,5-c]pyridin-2-yl)vinyl)-2,5-dimethyl-1H-pyrrol-1-yl)thiophene-3-carbonitrile] | 100 to 1000 nM
COc1cc2nc(/C(C#N)=C/c3cc(C)n(-c4sc(Cl)cc4C#N)c3C)[nH]c2cn1 [AB24349] | < 100 nM
Cc1ccc(-n2c(C)cc(/C=C(\C#N)c3nc4ccccc4[nH]3)c2C)cc1 [AB24237] | 5000 to 20000 nM
COc1cc2nc(/C(C#N)=C/c3cc(C)n(Cc4cnccn4)c3C)[nH]c2cn1 [AB29508, (E)-3-(2,5-dimethyl-1-(pyrazin-2-ylmethyl)-1H-pyrrol-3-yl)-2-(6-methoxy-3H-imidazo[4,5-c]pyridin-2-yl)acrylonitrile] | < 100 nM

Results, then the compound that gave them:

IC50 | SMILES
1000 to 5000 nM | Cc1oc(-n2c(C)cc(/C=C(\C#N)c3nc4ccc(C(=O)NCCN(C)C)cc4[nH]3)c2C)c(C#N)c1C [AB24206, (E)-2-(1-cyano-2-(1-(3-cyano-4,5-dimethylfuran-2-yl)-2,5-dimethyl-1H-pyrrol-3-yl)vinyl)-N-(2-(dimethylamino)ethyl)-1H-benzo[d]imidazole-6-carboxamide]
100 to 1000 nM | COc1cc2nc(/C(C#N)=C/c3cc(C)n(-c4sc(C)nc4C)c3C)[nH]c2cn1 [AB24319]
5000 to 20000 nM | COc1ccc2c(c1)[nH]c1cc(-c3cc(C)n(-c4sc(C)cc4C#N)c3C)c(C)cc12 [AB24374, 2-(3-(7-methoxy-3-methyl-9H-carbazol-2-yl)-2,5-dimethyl-1H-pyrrol-1-yl)-5-methylthiophene-3-carbonitrile]
1000 to 5000 nM | COc1ccc2nc(/C(C#N)=C/c3cc(C)n(-c4oc(C)c(C)c4C#N)c3C)[nH]c2n1 [AB24281, (E)-2-(3-(2-cyano-2-(5-methoxy-3H-imidazo[4,5-b]pyridin-2-yl)vinyl)-2,5-dimethyl-1H-pyrrol-1-yl)-4,5-dimethylfuran-3-carbonitrile]
1000 to 5000 nM | Cc1oc(-n2c(C)cc(/C=C(\C#N)c3nc4ccc(Br)cc4[nH]3)c2C)c(C#N)c1C [AB24213, (E)-2-(3-(2-(6-bromo-1H-benzo[d]imidazol-2-yl)-2-cyanovinyl)-2,5-dimethyl-1H-pyrrol-1-yl)-4,5-dimethylfuran-3-carbonitrile]
100 to 1000 nM | COc1cc2nc(/C(C#N)=C(\C)c3cc(C)n(-c4sc(C)cc4C#N)c3C)[nH]c2cn1 [AB24347, (E)-2-(3-(1-cyano-1-(6-methoxy-3H-imidazo[4,5-c]pyridin-2-yl)prop-1-en-2-yl)-2,5-dimethyl-1H-pyrrol-1-yl)-5-methylthiophene-3-carbonitrile]
100 to 1000 nM | COC(=O)c1nc(C)sc1-n1c(C)cc(/C=C(\C#N)c2nc3cc(OC)ncc3[nH]2)c1C [AB24345]
100 to 1000 nM | COc1ccc2nc(NC(=O)c3cc(C)n(-c4sc(C)nc4C)c3C)[nH]c2c1 [AB29505, 1-(2,4-dimethylthiazol-5-yl)-N-(6-methoxy-1H-benzo[d]imidazol-2-yl)-2,5-dimethyl-1H-pyrrole-3-carboxamide]
5000 to 20000 nM | Cc1oc(-n2c(C)cc(/C=C(\C#N)c3nc4cc(Cl)c(Cl)cc4[nH]3)c2C)c(C#N)c1C [AB24214, (E)-2-(3-(2-cyano-2-(5,6-dichloro-1H-benzo[d]imidazol-2-yl)vinyl)-2,5-dimethyl-1H-pyrrol-1-yl)-4,5-dimethylfuran-3-carbonitrile]
5000 to 20000 nM | CCOC(=O)c1ccc2nc(/C(C#N)=C/c3cc(C)n(-c4oc(C)c(C)c4C#N)c3C)[nH]c2c1 [AB24208, ethyl (E)-2-(1-cyano-2-(1-(3-cyano-4,5-dimethylfuran-2-yl)-2,5-dimethyl-1H-pyrrol-3-yl)vinyl)-1H-benzo[d]imidazole-6-carboxylate]
1000 to 5000 nM | Cc1oc(-n2c(C)cc(/C=C(\C#N)c3nc4ccc(CO)cc4[nH]3)c2C)c(C#N)c1C [AB24225, (E)-2-(3-(2-cyano-2-(6-(hydroxymethyl)-1H-benzo[d]imidazol-2-yl)vinyl)-2,5-dimethyl-1H-pyrrol-1-yl)-4,5-dimethylfuran-3-carbonitrile]
1000 to 5000 nM | COc1cc2[nH]c(/C(C#N)=C/c3cc(C)n(-c4oc(C)c(C)c4C#N)c3C)nc2cc1Br [AB24266, (E)-2-(3-(2-(5-bromo-6-methoxy-1H-benzo[d]imidazol-2-yl]-2-cyanovinyl)-2,5-dimethyl-1H-pyrrol-1-yl)-4,5-dimethylfuran-3-carbonitrile]
5000 to 20000 nM | COc1ccc2nc(/C(C#N)=C/c3cc(C)n(-c4ccccc4C#N)c3C)[nH]c2c1 [AB24307, (E)-2-(3-(2-cyano-2-(6-methoxy-1H-benzo[d]imidazol-2-yl]vinyl)-2,5-dimethyl-1H-pyrrol-1-yl)benzonitrile]
< 100 nM | COC(=O)c1cc(C)sc1-n1c(C)cc(/C=C(\C#N)c2nc3cc(OC)ncc3[nH]2)c1C [AB24311, methyl (E)-2-(3-(2-cyano-2-(6-methoxy-3H-imidazo[4,5-c]pyridin-2-yl)vinyl)-2,5-dimethyl-1H-pyrrol-1-yl)-5-methylthiophene-3-carboxylate]
1000 to 5000 nM | Cc1oc(-n2c(C)cc(/C=C(\C#N)c3nc4cc5c(cc4[nH]3)OCCO5)c2C)c(C#N)c1C [AB24287, (E)-2-(3-(2-cyano-2-(6,7-dihydro-1H-[1,4]dioxin[2′,3′: 4,5]benzo[1,2-d]imidazol-2-yl)vinyl)-2,5-dimethyl-1H-pyrrol-1-yl)-4,5-dimethylfuran-3-carbonitrile]
100 to 1000 nM | COc1cc2nc(/C(C#N)=C/c3cc(C)n(-c4sc(C)cc4C(N)=O)c3C)[nH]c2cn1 [AB24313, (E)-2-(3-(2-cyano-2-(6-methoxy-3H-imidazo[4,5-c]pyridin-2-yl)vinyl)-2,5-dimethyl-1H-pyrrol-1-yl)-5-methylthiophene-3-carboxamide]
< 100 nM | COc1cnc2[nH]c(/C(C#N)=C/c3cc(C)n(-c4sc(C)cc4C#N)c3C)nc2c1 [AB24333, (E)-2-(3-(2-cyano-2-(6-methoxy-3H-imidazo[4,5-b]pyridin-2-yl)vinyl)-2,5-dimethyl-1H-pyrrol-1-yl)-5-methylthiophene-3-carbonitrile]
1000 to 5000 nM | COc1cc2[nH]c(/C(C#N)=C/c3cc(C)n(-c4oc(C)c(C)c4C#N)c3C)nc2cc1F [AB24246, (E)-2-(3-(2-cyano-2-(5-fluoro-6-methoxy-1H-benzo[d]imidazol-2-yl]vinyl)-2,5-dimethyl-1H-pyrrol-1-yl)-4,5-dimethylfuran-3-carbonitrile]
1000 to 5000 nM | COc1cc2nc(/C(C#N)=C/c3cc(C)n(-c4oc(C)c(C)c4C#N)c3C)[nH]c2cc1OC [AB24229, (E)-2-(3-(2-cyano-2-(5,6-dimethoxy-1H-benzo[d]imidazol-2-yl)vinyl)-2,5-dimethyl-H-pyrrol-1-yl)-4,5-dimethylfuran-3-carbonitrile]
100 to 1000 nM | COc1ccc2nc(NC(=O)c3cc(C)n(-c4oc(C)c(C)c4C#N)c3C)[nH]c2c1 [AB29510, 1-(3-cyano-4,5-dimethylfuran-2-yl)-N-(6-methoxy-1H-benzo[d]imidazol-2-yl)-2,5-dimethyl-1H-pyrrole-3-carboxamide]
